Laboratory results reported in article PMC8164802, “Biological evaluation of Safrole oil and Safrole oil Nanoemulgel as antioxidant, antidiabetic, antibacterial, antifungal and anticancer” (BMC Complementary Medicine and Therapies, 2021).

Biological target: T1, porcine pancreatic α-amylase (Sus scrofa, UniProt P00690)
T1 construct: gene AMY2
Assay: DNSA colorimetric assay of starch hydrolysis, […] nm
Format: biochemical

T1 sequence (P00690 16-511): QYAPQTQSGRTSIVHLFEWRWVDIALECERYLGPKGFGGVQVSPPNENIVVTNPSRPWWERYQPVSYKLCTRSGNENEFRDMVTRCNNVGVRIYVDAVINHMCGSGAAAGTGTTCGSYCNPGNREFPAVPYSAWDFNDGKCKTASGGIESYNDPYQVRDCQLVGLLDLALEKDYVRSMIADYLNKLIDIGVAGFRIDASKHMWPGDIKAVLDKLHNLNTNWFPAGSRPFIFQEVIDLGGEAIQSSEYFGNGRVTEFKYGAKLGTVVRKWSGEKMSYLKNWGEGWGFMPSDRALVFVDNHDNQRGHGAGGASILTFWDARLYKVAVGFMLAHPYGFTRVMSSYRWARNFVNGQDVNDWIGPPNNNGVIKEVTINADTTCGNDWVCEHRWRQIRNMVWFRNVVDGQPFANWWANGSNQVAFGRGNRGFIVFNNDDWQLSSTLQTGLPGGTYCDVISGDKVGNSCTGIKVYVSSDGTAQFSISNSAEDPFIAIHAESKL

## C=CCc1ccc2c(c1)OCO2 [Safrole, 1-allyl-3,4-methylenedioxybenzene]
  IC50: 70 µM
